IC50 data for 3 compounds are collected here from patent US20210069356A1, “ISOTOPOLOGUES OF 2-(4-CHLOROPHENYL)-N-((2-(2,6-DIOXOPIPERIDIN-3-YL)-1-OXOISOINDOLIN-5-YL)METHYL)-2,2-DIFLUOROACETAMIDE” (Celgene Corporation, priority 2018, published 2021).

Test [1] has as its system KG-1 cell line. Briefly: KG-1 cell proliferation, CellTiter-Glo assay. It is filed as cell-based. To be noted: Homo sapiens; KG-1 cells, 72 hours post-treatment; read-out: FCA Prolif Cell TiterGlo KG-1 72 h (IC50). Here is the method: (§1) The anti-proliferative activity of the test compounds was evaluated on KG-1 and KG-1a cell lines using CellTiter-Glo assay as described in U.S. Pat. No. 9,499,514 at 72 hours post-treatment.

Test [2] concerns KG-1a cell line. Briefly: KG-1a cell proliferation, CellTiter-Glo assay. The class given is cell-based. To be noted: Homo sapiens; KG-1a cells, 72 hours post-treatment; read-out: FCA Prolif Cell TiterGlo KG-1a 72 h (IC50). Here is the method: as §1

The structures appear in SMILES notation.

With `[2H]c1cc(C(F)(F)C(=O)NCc2ccc3c(c2)CN(C2CCC(=O)NC2=O)C3=O)ccc1Cl` (stereo not drawn), the half-inhibitory concentration (IC50) (commonly the concentration that inhibits the measured activity by half) came out at 15.5 nM in test [1] and 18.1 nM in test [2].
Turning to `[2H]c1cc(Cl)ccc1C(F)(F)C(=O)NCc1ccc2c(c1)CN(C1CCC(=O)NC1=O)C2=O` (stereo not drawn), the half-maximal inhibitory concentration (IC50) in test [1] worked out at 36.9 nM; in test [2], 29.9 nM.
On to `[2H]c1c([2H])c(C(F)(F)C(=O)NCc2ccc3c(c2)CN(C2CCC(=O)NC2=O)C3=O)c([2H])c([2H])c1Cl` (stereo not drawn), for which the figures for the half-maximal inhibitory concentration (IC50) in test [1] and in test [2] were 26.2 nM and 31.3 nM, respectively.
